Assay results taken from patent US20250002475A1 (EPICS THERAPEUTICS, priority 2023, published 2025).

The compounds below were run against T1, recombinant METTL3/METTL14 complex (Homo sapiens, UniProt Q86U44) (assay: METTL3/14 Scintillation Proximity Assay (SPA), RNA methyltransferase activity). Details: 5.31 nM METTL3/14 complex, 250 nM RNA substrate, 1 μM 3H-SAM, 90 min; for compounds marked * best of the two separated forms.
T1 construct: purchased Active Motif 311970; host or cells: Sf9 cells
T1 sequence (Q86U44 whole entry): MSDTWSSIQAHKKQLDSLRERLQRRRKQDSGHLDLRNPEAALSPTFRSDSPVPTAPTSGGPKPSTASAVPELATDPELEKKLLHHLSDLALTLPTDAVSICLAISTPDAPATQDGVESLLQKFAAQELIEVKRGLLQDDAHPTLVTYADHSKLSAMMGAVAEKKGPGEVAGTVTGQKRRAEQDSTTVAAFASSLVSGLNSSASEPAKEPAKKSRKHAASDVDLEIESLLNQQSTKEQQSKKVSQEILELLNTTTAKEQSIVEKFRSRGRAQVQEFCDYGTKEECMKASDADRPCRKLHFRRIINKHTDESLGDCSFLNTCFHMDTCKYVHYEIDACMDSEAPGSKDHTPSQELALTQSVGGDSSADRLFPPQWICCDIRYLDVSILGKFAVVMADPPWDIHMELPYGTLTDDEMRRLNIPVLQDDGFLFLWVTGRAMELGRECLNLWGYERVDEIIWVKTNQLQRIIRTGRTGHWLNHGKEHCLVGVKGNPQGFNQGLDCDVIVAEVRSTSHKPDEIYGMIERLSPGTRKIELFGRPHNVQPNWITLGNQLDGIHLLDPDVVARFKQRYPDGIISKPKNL
T1 sequence (Q9HCE5 whole entry partner): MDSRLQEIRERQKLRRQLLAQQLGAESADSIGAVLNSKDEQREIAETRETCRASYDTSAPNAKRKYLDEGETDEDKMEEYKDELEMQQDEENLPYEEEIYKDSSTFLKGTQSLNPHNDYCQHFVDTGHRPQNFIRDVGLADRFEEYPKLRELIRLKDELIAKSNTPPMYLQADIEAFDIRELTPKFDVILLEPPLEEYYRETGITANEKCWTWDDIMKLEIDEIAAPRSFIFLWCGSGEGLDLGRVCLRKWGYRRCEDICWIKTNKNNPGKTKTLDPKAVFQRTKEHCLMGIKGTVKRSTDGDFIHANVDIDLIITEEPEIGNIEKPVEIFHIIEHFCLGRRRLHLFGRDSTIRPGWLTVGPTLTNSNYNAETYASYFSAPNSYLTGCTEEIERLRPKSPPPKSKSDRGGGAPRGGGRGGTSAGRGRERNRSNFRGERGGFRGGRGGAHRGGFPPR
Type: biochemical

IC50 [nM] | Structure (SMILES)
≤ 50 | COc1cnnc(-c2cn(Cc3ccc(N4CCC[C@@H](NCC5CCC5)C4)cc3)nn2)c1 [Compound 136, (R)-N-(cyclobutylmethyl)-1-(4-((4-(5-methoxypyridazin-3-yl)-1H-1,2,3-triazol-1-yl)methyl)phenyl)piperidin-3-amine]
50 to 500 | COc1cc(C(=O)NCc2ccc(N3CCC[C@@H](NCC4CCC4)C3)nn2)c2cn[nH]c2c1 [Compound 005, (R)-N-((6-(3-((cyclobutylmethyl)amino)piperidin-1-yl)pyridazin-3-yl)methyl)-6-methoxy-1H-indazole-4-carboxamide]
50 to 500 | COc1cncc(-c2noc(C(C)n3ccc(N4CCC[C@@H](NCC5CCC5)C4)cc3=O)n2)c1 (stereo partly drawn) [Compound 125, 4-((R)-3-((cyclobutylmethyl)amino)piperidin-1-yl)-1-(1-(3-(5-methoxypyridin-3-yl)-1,2,4-oxadiazol-5-yl)ethyl)pyridin-2(1H)-one]
≤ 50 | CC(c1ccc(N2CCC[C@@H](NCC3CCC3)C2)nn1)n1cc(-c2cc(=O)n3cc(Cl)ccc3n2)nn1 (stereo partly drawn) [Compound 090, 7-chloro-2-(1-(1-(6-((R)-3-((cyclobutylmethyl)amino)piperidin-1-yl)pyridazin-3-yl)ethyl)-1H-1,2,3-triazol-4-yl)-4H-pyrido[1,2-a]pyrimidin-4-one]
≤ 50 | CC(c1ccc(N2CCC[C@@H](NCC3CCC3)C2)cn1)n1cc(-c2cc(=O)n3ccccc3n2)nn1 (mixture of isomers) [Compound 099, 2-(1-(1-(5-((R)-3-((cyclobutylmethyl)amino)piperidin-1-yl)pyridin-2-yl)ethyl)-1H-1,2,3-triazol-4-yl)-4H-pyrido[1,2-a]pyrimidin-4-one]
≤ 50 | CC(C(=O)Nc1cncc(N2CCCC2)n1)c1ccc(N2CCC[C@@H](NCC3CCC3)C2)cc1 (single isomer, unassigned) [Compound 294]
≤ 50 | COc1cnnc(-c2cn(Cc3ccc(N4CCC[C@@H](NCC5CCC5)C4)cn3)nn2)c1 [Compound 118, (R)-N-(cyclobutylmethyl)-1-(6-((4-(5-methoxypyridazin-3-yl)-1H-1,2,3-triazol-1-yl)methyl)pyridin-3-yl)piperidin-3-amine]
≤ 50 | CC(c1ccc(N2CCC[C@@H](NCC3CCC3)C2)cc1)n1cc(-c2cc(=O)n3ccccc3n2)nn1 (stereo partly shown) [Compound 102]
≤ 50 | CC(c1ccc(N2CCC[C@@H](NCC3CCC3)C2)nn1)n1cc(-c2cncc(N(C)C)c2)nn1 (mixture of isomers) [Compound 133, 5-(1-(1-(6-((R)-3-((cyclobutylmethyl)amino)piperidin-1-yl)pyridazin-3-yl)ethyl)-1H-1,2,3-triazol-4-yl)-N,N-dimethylpyridin-3-amine]
500 to 3500 | COc1cc(-c2cn(Cn3cc(F)c(N4CCCC(NCC5CCC5)C4)cc3=O)nn2)c2cn[nH]c2c1 (stereo not shown) [Compound 054, 4-(3-((cyclobutylmethyl)amino)piperidin-1-yl)-5-fluoro-1-((4-(6-methoxy-1H-indazol-4-yl)-1H-1,2,3-triazol-1-yl)methyl)pyridin-2(1H)-one]
50 to 500 | COc1cncc(-c2nnn(Cc3ccc(N4CCC[C@@H](NCC5CCC5)C4)cc3)n2)c1 [Compound 145, (R)-N-(cyclobutylmethyl)-1-(4-((5-(5-methoxypyridin-3-yl)-2H-tetrazol-2-yl)methyl)phenyl)piperidin-3-amine]
≤ 50 | COc1cc(-c2cn(Cc3ncc(N4CCCC(NCC5CCC5)C4)s3)nn2)c2cn[nH]c2c1 (stereo not shown) [Compound 049, N-(cyclobutylmethyl)-1-(2-((4-(6-methoxy-1H-indazol-4-yl)-1H-1,2,3-triazol-1-yl)methyl)thiazol-5-yl)piperidin-3-amine]

Second part, the compound before the results:

Structure (SMILES) | IC50 [nM]
O=c1cc(-c2cn(Cc3ccc(N4CCC[C@@H](NCC5CCC5)C4)cc3)nn2)nc2ccccn12 [Compound 128, (R)-2-(1-(4-(3-((cyclobutylmethyl)amino)piperidin-1-yl)benzyl)-1H-1,2,3-triazol-4-yl)-4H-pyrido[1,2-a]pyrimidin-4-one] | ≤ 50
COc1cncc(-c2nnn(C(C)n3ccc(N4CCC[C@@H](NCC5CCC5)C4)cc3=O)n2)c1 (mixture of isomers) [Compound 106, 4-((R)-3-((cyclobutylmethyl)amino)piperidin-1-yl)-1-(1-(5-(5-methoxypyridin-3-yl)-2H-tetrazol-2-yl)ethyl)pyridin-2(1H)-one] | ≤ 50
C=C(c1ccc(N2CCC[C@@H](NCC3CCC3)C2)cc1)n1cc(-c2cncc(N(C)C)c2)nn1 [Compound 155, (R)-5-(1-(1-(4-(3-((cyclobutylmethyl)amino)piperidin-1-yl)phenyl)vinyl)-1H-1,2,3-triazol-4-yl)-N,N-dimethylpyridin-3-amine] | ≤ 50
COc1cncc(-c2nnn(C(C)c3ccc(N4CCC[C@@H](NCC5CCC5)C4)nn3)n2)c1 (single isomer, unassigned) [Compound 190] | ≤ 50
COc1cncc(NC(=O)C(C)c2ccc(N3CCC[C@@H](NCC4CCC4)C3)nn2)c1 (stereo partly drawn) [Compound 141, 2-(6-((R)-3-((cyclobutylmethyl)amino)piperidin-1-yl)pyridazin-3-yl)-N-(5-methoxypyridin-3-yl)propanamide] | 50 to 500
CNc1cncc(-c2cn(C(C)n3ccc(N4CCC[C@@H](NCC5CCC5)C4)cc3=O)nn2)c1 (mixture of isomers) [Compound 096, 4-((R)-3-((cyclobutylmethyl)amino)piperidin-1-yl)-1-(1-(4-(5-(methylamino)pyridin-3-yl)-1H-1,2,3-triazol-1-yl)ethyl)pyridin-2(1H)-one] | ≤ 50
COc1cc(-c2cn(Cc3ccc(N4CCC[C@@H](NC5CCOC5)C4)nn3)nn2)c2cn[nH]c2c1 (single isomer, unassigned) [Compound 033] | ≤ 50
COc1cncc(-c2cn(C(c3ccc(N4CCC[C@@H](NCC5CCC5)C4)nn3)C3CC3)nn2)c1 (single isomer, unassigned) [Compound 084] | ≤ 50
CC(C(=O)Nc1cncc(N(C)C)c1)n1ccc(N2CCC[C@@H](NCC3CCC3)C2)cc1=O (mixture of isomers) [Compound 162, 2-(4-((R)-3-((cyclobutylmethyl)amino)piperidin-1-yl)-2-oxopyridin-1(2H)-yl)-N-(5-(dimethylamino)pyridin-3-yl)propanamide] | 50 to 500
CC1CCCN1c1cncc(-c2cn(C(C)n3ccc(N4CCC[C@@H](NCC5CCC5)C4)cc3=O)nn2)c1 (mixture of isomers) [Compound 172] | 50 to 500
CC(NC(=O)c1cc(=O)n2ccccc2n1)c1ccc(N2CCC[C@@H](NCC3CCC3)C2)cc1 (stereo partly drawn) [Compound 100, N-(1-(4-((R)-3-((cyclobutylmethyl)amino)piperidin-1-yl)phenyl)ethyl)-4-oxo-4H-pyrido[1,2-a]pyrimidine-2-carboxamide] | 50 to 500
CC(n1cc(-c2cncc(N3CCOCC3)c2)nn1)n1ccc(N2CCC[C@@H](NCC3CCC3)C2)cc1=O (mixture of isomers) [Compound 129, 4-((R)-3-((cyclobutylmethyl)amino)piperidin-1-yl)-1-(1-(4-(5-morpholinopyridin-3-yl)-1H-1,2,3-triazol-1-yl)ethyl)pyridin-2(1H)-one] | ≤ 50
COc1ccc(C(=O)NC(C)c2ccc(N3CCC[C@@H](NCC4CCC4)C3)nn2)c2cn[nH]c12 (mixture of isomers) [Compound 092, N-(1-(6-((R)-3-((cyclobutylmethyl)amino)piperidin-1-yl)pyridazin-3-yl)ethyl)-7-methoxy-1H-indazole-4-carboxamide] | ≤ 50
